Measured values: patent publication US10800792B2, “Inhibitors of Bruton's tyrosine kinase and method of their use” (JANSSEN PHARMACEUTICA NV, priority 2015, dated 2020)

molecular target: unphosphorylated-BTK kinase domain (UP-BTK), GST-tagged human BTK (389-659aa) (Homo sapiens (Human), UniProt Q06187); experiment: BTK kinase Lanthascreen binding assay; conditions: Lanthascreen tracer competition, 60 minutes incubation; pIC50 = negative log of the IC50 in molar
Description: BTK Kinase Lanthascreen Binding Assay:
A BTK kinase lanthascreen binding assay monitors compound binding to unphosphorylated-BTK kinase domain (UP-BTK), by competing with a fluorescent labeled tracer. […] Data were analyzed using Xlfit™ version 5.3 from ID Business Solutions (Guildford), Microsoft Excel add-in. pIC50 refers to the negative log of the IC50 in molar

unphosphorylated-BTK kinase domain (UP-BTK), GST-tagged human BTK (389-659aa), sequence (Q06187 389-659): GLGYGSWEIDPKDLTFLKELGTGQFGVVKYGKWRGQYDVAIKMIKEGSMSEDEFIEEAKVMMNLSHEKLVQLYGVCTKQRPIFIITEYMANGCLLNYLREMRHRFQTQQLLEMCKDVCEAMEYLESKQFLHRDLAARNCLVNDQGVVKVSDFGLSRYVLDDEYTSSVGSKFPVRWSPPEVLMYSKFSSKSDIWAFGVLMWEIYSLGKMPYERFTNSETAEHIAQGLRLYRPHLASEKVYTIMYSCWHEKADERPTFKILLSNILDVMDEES

Point of comparison: `C=CC(=O)N1CC[C@@H](NC(=O)c2sc3nccc4c3c2NC(=O)N4c2cnc(Oc3ccccc3)nc2C)C1` (single isomer, unassigned) [Example 724, (R)—N-(1-Acryloylpyrrolidin-3-yl)-5-(*R)-(4-methyl-2-phenoxypyrimidin-5-yl)-4-oxo-4,5-dihydro-3H-1-thia-3,5,8-triazaacenaphthylene-2-carboxamide], “BTK_I_binding pIC50” value 6.1. Against it:
- Cc1cc(Oc2ccccc2)ccc1N1C(=O)Nc2c(C(=O)N[C@@H]3CCN(C#N)C3)sc3nccc1c23 [Example 837, (R)—N-(1-Cyanopyrrolidin-3-yl)-5-(2-methyl-4-phenoxyphenyl)-4-oxo-4,5-dihydro-3H-1-thia-3,5,8-triazaacenaphthylene-2-carboxamide] — higher, 7.9
- O=C(N[C@@H]1CCCNC1)c1sc2nccc3c2c1NC(=O)N3c1ccnc(C2CCC2)c1 [Example 634, (R)-5-(2-Cyclobutylpyridin-4-yl)-4-oxo-N-(piperidin-3-yl)-4,5-dihydro-3H-1-thia-3,5,8-triazaacenaphthylene-2-carboxamide] — lower, 5.8
- N#C/C(=C\C1CC1)C(=O)N1CCC[C@@H](NC(=O)c2sc3nccc4c3c2NC(=O)N4c2cccc(Oc3ccccc3)c2)C1 [Example 840, (R,E)-N-(1-(2-Cyano-3-cyclopropylacryloyl)piperidin-3-yl)-4-oxo-5-(3-phenoxyphenyl)-4,5-dihydro-3H-1-thia-3,5,8-triazaacenaphthylene-2-carboxamide] — higher, 7.8
- C=CC(=O)N1CCC[C@@H](NC(=O)c2sc3nccc4c3c2NC(=O)N4c2ccc(Oc3ccccc3)nc2C)C1 [Example 670, (R)—N-(1-Acryloylpiperidin-3-yl)-5-(2-methyl-6-phenoxypyridin-3-yl)-4-oxo-4,5-dihydro-3H-1-thia-3,5,8-triazaacenaphthylene-2-carboxamide] — higher, 8.2
- C=CC(=O)N1CCC[C@@H](NC(=O)c2sc3nccc4c3c2NC(=O)N4c2cc(-c3ccccc3)ccc2C)C1 [Example 688, (R)—N-(1-Acryloylpiperidin-3-yl)-5-(4-methyl-[1,1′-biphenyl]-3-yl)-4-oxo-4,5-dihydro-3H-1-thia-3,5,8-triazaacenaphthylene-2-carboxamide] — higher, 7.5

With `O=C(N[C@@H]1CCCNC1)c1sc2nccc3c2c1NC(=O)N3c1cccc(Oc2ccccc2)n1` [Example 645, (R)-4-Oxo-5-(6-phenoxypyridin-2-yl)-N-(piperidin-3-yl)-4,5-dihydro-3H-1-thia-3,5,8-triazaacenaphthylene-2-carboxamide] the “BTK_I_binding pIC50” value was <5.

same assay, conditions: pIC50 = negative log of the IC50 in molar; 60 minutes incubation, 50 nM Tracer 236

Point of comparison: `COCC(=O)N1CCC[C@@H](NC(=O)c2sc3nccc4c3c2NC(=O)N4c2ccc(Oc3ccccc3)cc2C)C1` [Example 95, (R)—N-(1-(2-Methoxyacetyl)piperidin-3-yl)-5-(2-methyl-4-phenoxyphenyl)-4-oxo-4,5-dihydro-3H-1-thia-3,5,8-triazaacenaphthylene-2-carboxamide], “BTK_I_binding pIC50” value 7.4. Against it:
- C=CC(=O)N1CCC[C@@H](NC(=O)c2sc3nccc4c3c2NC(=O)N4c2c(F)cc(Oc3ccccc3)cc2F)C1 [Example 69, (R)—N-(1-Acryloylpiperidin-3-yl)-5-(2,6-difluoro-4-phenoxyphenyl)-4-oxo-4,5-dihydro-3H-1-thia-3,5,8-triazaacenaphthylene-2-carboxamide] — higher, 7.7
- Cc1cc(Oc2ccccc2)ccc1N1C(=O)Nc2c(C(=O)N[C@H]3CNC[C@@H](F)C3)sc3nccc1c23 [Example 167, N-((3R,5S)-5-fluoropiperidin-3-yl)-5-(2-methyl-4-phenoxyphenyl)-4-oxo-4,5-dihydro-3H-1-thia-3,5,8-triazaacenaphthylene-2-carboxamide] — lower, 7.0
- Cc1cc(Oc2ccccc2)ccc1N1C(=O)Nc2c(C(=O)N[C@H]3CCOC3)sc3nccc1c23 (single isomer, unassigned) [Example 68, (S)-5-(*S)-(2-Methyl-4-phenoxyphenyl)-4-oxo-N-(tetrahydrofuran-3-yl)-4,5-dihydro-3H-1-thia-3,5,8-triazaacenaphthylene-2-carboxamide] — higher, 7.7
- COC[C@H](N)C(=O)N1CCC[C@@H](NC(=O)c2sc3nccc4c3c2NC(=O)N4c2ccc(Oc3ccccc3)cc2C)C1 [Example 120, N—((R)-1-((S)-2-Amino-3-methoxypropanoyl)piperidin-3-yl)-5-(2-methyl-4-phenoxyphenyl)-4-oxo-4,5-dihydro-3H-1-thia-3,5,8-triazaacenaphthylene-2-carboxamide] — lower, 7.1
- O=C(N[C@@H]1CCCNC1)c1sc2nccc3c2c1NC(=O)N3c1ccc(Cl)c(C(F)(F)F)c1 [Example 280, (R)-5-(4-Chloro-3-(trifluoromethyl)phenyl)-4-oxo-N-(piperidin-3-yl)-4,5-dihydro-3H-1-thia-3,5,8-triazaacenaphthylene-2-carboxamide] — lower, 5.8

same assay, conditions: pIC50 = negative log of the IC50 in molar; 60 minutes incubation, 50 nM Tracer 236; read-out: BTK_I_binding pIC50 (converted)

`CCOC(C)(C)C=C(C#N)C(=O)N1CCC[C@@H](NC(=O)c2sc3nccc4c3c2NC(=O)N4c2ccc(Oc3ccccc3)cc2C)C1` (mixture of isomers) [Example 29, (R,EZ)—N-(1-(2-Cyano-4-ethoxy-4-methylpent-2-enoyl)piperidin-3-yl)-5-(2-methyl-4-phenoxyphenyl)-4-oxo-4,5-dihydro-3H-1-thia-3,5,8-triazaacenaphthylene-2-carboxamide] showed an IC50 of 50.1 nM.

same assay, conditions: unphosphorylated-BTK kinase domain, 50 nM Tracer 236, 60 minutes; pIC50 = negative log of the IC50 in molar

Point of comparison: `Cc1ccc(-c2cccc(N3C(=O)Nc4c(C(=O)N[C@@H]5CCCNC5)sc5nccc3c45)c2)cc1` [Example 580, (R)-5-(4′-Methyl-[1,1′-biphenyl]-3-yl)-4-oxo-N-(piperidin-3-yl)-4,5-dihydro-3H-1-thia-3,5,8-triazaacenaphthylene-2-carboxamide], “BTK_I_binding pIC50” value 6.9. Against it:
- C=CC(=O)N1CCC[C@@H](NC(=O)c2sc3nccc4c3c2NC(=O)N4c2cccc(C3CCC3)c2)C1 [Example 534, (R)—N-(1-Acryloylpiperidin-3-yl)-5-(3-cyclobutylphenyl)-4-oxo-4,5-dihydro-3H-1-thia-3,5,8-triazaacenaphthylene-2-carboxamide] — higher, 7.8
- Cc1cc(Oc2ccccc2)ccc1N1C(=O)Nc2c(C(=O)N[C@@H]3CCCN(C(=O)/C=C/CO)C3)sc3nccc1c23 (single isomer, unassigned) [Example 503, (R,E)-N-(1-(4-Hydroxybut-2-enoyl)piperidin-3-yl)-5-(*S)-(2-methyl-4-phenoxyphenyl)-4-oxo-4,5-dihydro-3H-1-thia-3,5,8-triazaacenaphthylene-2-carboxamide] — higher, 7.8
- Cc1cc(Oc2ccccc2)ccc1N1C(=O)Nc2c(C(=O)N[C@H]3CCNC(C)C3)sc3nccc1c23 (single isomer, unassigned) [Example 433, 5-(*R)-(2-Methyl-4-phenoxyphenyl)-N-((4*S)-2-methylpiperidin-4-yl)-4-oxo-4,5-dihydro-3H-1-thia-3,5,8-triazaacenaphthylene-2-carboxamide] — lower, 5.4
- C=CC(=O)N1CC[C@@H](NC(=O)c2sc3nccc4c3c2NC(=O)N4c2cccc(-c3ccccc3)c2)C1 [Example 531, (R)-5-([1,1′-Biphenyl]-3-yl)-N-(1-acryloylpyrrolidin-3-yl)-4-oxo-4,5-dihydro-3H-1-thia-3,5,8-triazaacenaphthylene-2-carboxamide] — higher, 7.5
- C=CC(=O)N1CCC[C@@H](NC(=O)c2sc3nccc4c3c2NC(=O)N4c2ccc3sccc3c2)C1 [Example 404, (R)—N-(1-Acryloylpiperidin-3-yl)-5-(benzo[b]thiophen-5-yl)-4-oxo-4,5-dihydro-3H-1-thia-3,5,8-triazaacenaphthylene-2-carboxamide] — lower, 6.1
- Cc1cc(Oc2ccccc2)c(F)cc1N1C(=O)Nc2c(C(=O)N[C@H]3CCCOC3)sc3nccc1c23 [Example 308, (S)-5-(5-Fluoro-2-methyl-4-phenoxyphenyl)-4-oxo-N-(tetrahydro-2H-pyran-3-yl)-4,5-dihydro-3H-1-thia-3,5,8-triazaacenaphthylene-2-carboxamide] — lower, 6.0
- C=CC(=O)N1CCC[C@@H](NC(=O)c2sc3nccc4c3c2NC(=O)N4c2cccc(-c3ccccc3Cl)c2)C1 [Example 510, (R)—N-(1-Acryloylpiperidin-3-yl)-5-(2′-chloro-[1,1′-biphenyl]-3-yl)-4-oxo-4,5-dihydro-3H-1-thia-3,5,8-triazaacenaphthylene-2-carboxamide] — higher, 8.0
- N#C/C(=C\C1CC1)C(=O)N1CCC[C@@H](NC(=O)c2sc3nccc4c3c2NC(=O)N4c2ccnc(-c3ccccc3)c2)C1 [Example 559, (R,E)-N-(1-(2-Cyano-3-cyclopropylacryloyl)piperidin-3-yl)-4-oxo-5-(2-phenylpyridin-4-yl)-4,5-dihydro-3H-1-thia-3,5,8-triazaacenaphthylene-2-carboxamide] — higher, 8.2
- Cc1cc(Oc2cc(F)cc(F)c2)ccc1N1C(=O)Nc2c(C(=O)N[C@@H]3CCCN(C)C3)sc3nccc1c23 [Example 286, (R)-5-(4-(3,5-Difluorophenoxy)-2-methylphenyl)-N-(1-methylpiperidin-3-yl)-4-oxo-4,5-dihydro-3H-1-thia-3,5,8-triazaacenaphthylene-2-carboxamide] — lower, 6.2

`O=C(N[C@@H]1CCCN(C(=O)n2ccnc2)C1)c1sc2nccc3c2c1NC(=O)N3c1ccc2c(c1)OC(F)(F)O2` [Example 454, (R)—N-(1-(1H-Imidazole-1-carbonyl)piperidin-3-yl)-5-(2,2-difluorobenzo[d][1.3]dioxol-5-yl)-4-oxo-4,5-dihydro-3H-1-thia-3,5,8-triazaacenaphthylene-2-carboxamide] was tested, and the “BTK_I_binding pIC50” value was <5.
